Measurements reported in patent US20250296938A1, “Compounds that Interact with the Ras Superfamily for the Treatment of Cancers, Inflammatory Diseases, Rasopathies, and Fibrotic Disease” (SHY Therapeutics, LLC, priority 2018, published 2025).

Each molecule was assayed against T1, KRas G12D mutant (Homo sapiens, UniProt P01116, G12D) (assay: Ras GTP binding domain inhibition assay (Cy3-GTP/Cy5-GTP competition)). Conditions: 20 μM; with SOS; read-out: KRas G-12D mutant + SOS: % inh.
T1 construct: fused on or other part: His tag, used for capture on nickel-coated plates
Method in brief: (§1)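 His-tagged Ras proteins were captured on nickel-coated wells in Buffer-I (25 mM Tris-HCl pH 7.4, 27 mM KCl, 137 mM NaCl, 1 mM MgCl2, 1 mM DTT) or Buffer-II (50 mM Tris-HCl pH 7.0). Compounds (20 μM or serial dilution, 1% DMSO) were incubated 3 h at RT, ±Sos(556-1049) in the final hour. Bound Cy3-/Cy5-GTP (100 nM, 45 min) was read after washing.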

Row | SMILES | inhibition at 20 µM [%]
1 | Cc1cn(C)c(-c2nc(O)c3scc(-c4ccccn4)c3n2)n1 [drawing 807] | 26 to 50
2 | Cc1cnc(-c2nc(O)c3scc(-c4ccccn4)c3n2)n1C [drawing 808] | 1 to 25
3 | O=C(NC1CCC1)c1nc(-c2ccccn2)nc(O)c1O [drawing 809] | 26 to 50
4 | COCCN(C)C(=O)c1nc(-c2ccccn2)nc(O)c1O [drawing 810] | 1 to 25
5 | CC(C)CNC(=O)c1nc(-c2ccccn2)nc(O)c1O [drawing 811] | 1 to 25
6 | O=C(NC1CCCC1)c1nc(-c2ccccn2)nc(O)c1O [drawing 812] | 1 to 25
7 | COc1c(O)nc(-c2ccccn2)nc1Oc1ccccc1 [drawing 813] | 26 to 50
8 | COCCc1ccc(Oc2nc(-c3ccccn3)nc(O)c2OC)cc1 [drawing 814] | 26 to 50

Same assay, conditions: 20 μM; without SOS; read-out: KRas G12D mutant: % inh.

Row | SMILES | inhibition at 20 µM [%]
9 | Cc1cn(C)c(-c2nc(O)c3scc(-c4ccccn4)c3n2)n1 [drawing 807] | 76 to 100
10 | Cc1cnc(-c2nc(O)c3scc(-c4ccccn4)c3n2)n1C [drawing 808] | 51 to 75
11 | O=C(NC1CCC1)c1nc(-c2ccccn2)nc(O)c1O [drawing 809] | 51 to 75
12 | COCCN(C)C(=O)c1nc(-c2ccccn2)nc(O)c1O [drawing 810] | 1 to 25
13 | CC(C)CNC(=O)c1nc(-c2ccccn2)nc(O)c1O [drawing 811] | 51 to 75
14 | O=C(NC1CCCC1)c1nc(-c2ccccn2)nc(O)c1O [drawing 812] | 51 to 75
15 | COc1c(O)nc(-c2ccccn2)nc1Oc1ccccc1 [drawing 813] | 26 to 50
16 | COCCc1ccc(Oc2nc(-c3ccccn3)nc(O)c2OC)cc1 [drawing 814] | 51 to 75

What follows are molecules tested on KRas G12C mutant in the same assay as above. Conditions: 20 μM; with SOS.
Design: species or system human
Method in brief: as §1

Row | SMILES | KRas G12C mutant + SOS: % inh.
17 | Cc1cn(C)c(-c2nc(O)c3scc(-c4ccccn4)c3n2)n1 [drawing 807] | C (51-75% inhibition)
18 | Cc1cnc(-c2nc(O)c3scc(-c4ccccn4)c3n2)n1C [drawing 808] | B (26-50% inhibition)
19 | O=C(NC1CCC1)c1nc(-c2ccccn2)nc(O)c1O [drawing 809] | B (26-50% inhibition)
20 | COCCN(C)C(=O)c1nc(-c2ccccn2)nc(O)c1O [drawing 810] | A (1-25% inhibition)
21 | CC(C)CNC(=O)c1nc(-c2ccccn2)nc(O)c1O [drawing 811] | B (26-50% inhibition)
22 | O=C(NC1CCCC1)c1nc(-c2ccccn2)nc(O)c1O [drawing 812] | B (26-50% inhibition)
23 | COc1c(O)nc(-c2ccccn2)nc1Oc1ccccc1 [drawing 813] | C (51-75% inhibition)
24 | COCCc1ccc(Oc2nc(-c3ccccn3)nc(O)c2OC)cc1 [drawing 814] | B (26-50% inhibition)

Same assay, conditions: 20 μM; without SOS

Row | SMILES | KRas G12C mutant: % inh.
25 | Cc1cn(C)c(-c2nc(O)c3scc(-c4ccccn4)c3n2)n1 [drawing 807] | C (51-75% inhibition)
26 | Cc1cnc(-c2nc(O)c3scc(-c4ccccn4)c3n2)n1C [drawing 808] | C (51-75% inhibition)
27 | O=C(NC1CCC1)c1nc(-c2ccccn2)nc(O)c1O [drawing 809] | C (51-75% inhibition)
28 | COCCN(C)C(=O)c1nc(-c2ccccn2)nc(O)c1O [drawing 810] | C (51-75% inhibition)
29 | CC(C)CNC(=O)c1nc(-c2ccccn2)nc(O)c1O [drawing 811] | D (76-100% inhibition)
30 | O=C(NC1CCCC1)c1nc(-c2ccccn2)nc(O)c1O [drawing 812] | D (76-100% inhibition)
31 | COc1c(O)nc(-c2ccccn2)nc1Oc1ccccc1 [drawing 813] | C (51-75% inhibition)
32 | COCCc1ccc(Oc2nc(-c3ccccn3)nc(O)c2OC)cc1 [drawing 814] | A (1-25% inhibition)

These molecules were tested on KRas Q61H mutant in the same assay as above. Conditions: 20 μM; with SOS.
Design: species or system human
Method in brief: as §1

Row | SMILES | KRas Q61H mutant + SOS: % inh.
33 | Cc1cn(C)c(-c2nc(O)c3scc(-c4ccccn4)c3n2)n1 [drawing 807] | C (51-75% inhibition)
34 | Cc1cnc(-c2nc(O)c3scc(-c4ccccn4)c3n2)n1C [drawing 808] | B (26-50% inhibition)
35 | O=C(NC1CCC1)c1nc(-c2ccccn2)nc(O)c1O [drawing 809] | B (26-50% inhibition)
36 | COCCN(C)C(=O)c1nc(-c2ccccn2)nc(O)c1O [drawing 810] | A (1-25% inhibition)
37 | CC(C)CNC(=O)c1nc(-c2ccccn2)nc(O)c1O [drawing 811] | B (26-50% inhibition)
38 | O=C(NC1CCCC1)c1nc(-c2ccccn2)nc(O)c1O [drawing 812] | B (26-50% inhibition)
39 | COc1c(O)nc(-c2ccccn2)nc1Oc1ccccc1 [drawing 813] | C (51-75% inhibition)
40 | COCCc1ccc(Oc2nc(-c3ccccn3)nc(O)c2OC)cc1 [drawing 814] | C (51-75% inhibition)

Same assay, conditions: 20 μM; without SOS

Row | SMILES | KRas Q61H mutant: % inh.
41 | Cc1cn(C)c(-c2nc(O)c3scc(-c4ccccn4)c3n2)n1 [drawing 807] | A (1-25% inhibition)
42 | Cc1cnc(-c2nc(O)c3scc(-c4ccccn4)c3n2)n1C [drawing 808] | A (1-25% inhibition)
43 | O=C(NC1CCC1)c1nc(-c2ccccn2)nc(O)c1O [drawing 809] | D (76-100% inhibition)
44 | COCCN(C)C(=O)c1nc(-c2ccccn2)nc(O)c1O [drawing 810] | A (1-25% inhibition)
45 | CC(C)CNC(=O)c1nc(-c2ccccn2)nc(O)c1O [drawing 811] | C (51-75% inhibition)
46 | O=C(NC1CCCC1)c1nc(-c2ccccn2)nc(O)c1O [drawing 812] | C (51-75% inhibition)
47 | COc1c(O)nc(-c2ccccn2)nc1Oc1ccccc1 [drawing 813] | D (76-100% inhibition)
48 | COCCc1ccc(Oc2nc(-c3ccccn3)nc(O)c2OC)cc1 [drawing 814] | B (26-50% inhibition)

The molecules below were run on KRas wild type in the same assay as above. Conditions: 20 μM; with SOS.
Design: species or system human
Method in brief: as §1

Row | SMILES | KRas wild type + SOS: % inh.
49 | Cc1cn(C)c(-c2nc(O)c3scc(-c4ccccn4)c3n2)n1 [drawing 807] | B (26-50% inhibition)
50 | Cc1cnc(-c2nc(O)c3scc(-c4ccccn4)c3n2)n1C [drawing 808] | A (1-25% inhibition)
51 | O=C(NC1CCC1)c1nc(-c2ccccn2)nc(O)c1O [drawing 809] | A (1-25% inhibition)
52 | COCCN(C)C(=O)c1nc(-c2ccccn2)nc(O)c1O [drawing 810] | A (1-25% inhibition)
53 | CC(C)CNC(=O)c1nc(-c2ccccn2)nc(O)c1O [drawing 811] | A (1-25% inhibition)
54 | O=C(NC1CCCC1)c1nc(-c2ccccn2)nc(O)c1O [drawing 812] | A (1-25% inhibition)
55 | COc1c(O)nc(-c2ccccn2)nc1Oc1ccccc1 [drawing 813] | B (26-50% inhibition)
56 | COCCc1ccc(Oc2nc(-c3ccccn3)nc(O)c2OC)cc1 [drawing 814] | B (26-50% inhibition)

Same assay, conditions: 20 μM; without SOS

Row | SMILES | KRas wild type: % inh.
57 | Cc1cn(C)c(-c2nc(O)c3scc(-c4ccccn4)c3n2)n1 [drawing 807] | D (76-100% inhibition)
58 | Cc1cnc(-c2nc(O)c3scc(-c4ccccn4)c3n2)n1C [drawing 808] | C (51-75% inhibition)
59 | O=C(NC1CCC1)c1nc(-c2ccccn2)nc(O)c1O [drawing 809] | D (76-100% inhibition)
60 | COCCN(C)C(=O)c1nc(-c2ccccn2)nc(O)c1O [drawing 810] | B (26-50% inhibition)
61 | CC(C)CNC(=O)c1nc(-c2ccccn2)nc(O)c1O [drawing 811] | D (76-100% inhibition)
62 | O=C(NC1CCCC1)c1nc(-c2ccccn2)nc(O)c1O [drawing 812] | D (76-100% inhibition)
63 | COc1c(O)nc(-c2ccccn2)nc1Oc1ccccc1 [drawing 813] | D (76-100% inhibition)
64 | COCCc1ccc(Oc2nc(-c3ccccn3)nc(O)c2OC)cc1 [drawing 814] | D (76-100% inhibition)
